Data published in patent US7524849B2, “5-arylpyrimidines as anticancer agents” (Wyeth Holdings Corporation, priority 2003, dated 2009).
Marks after values point to notes of the source that are not given here.

Assays:
[1] = tested on: highly purified tubulin (tubulin heterodimer); test: Competitive binding test, [3H]colchicine; design: species or system bovine; details: competitor 100 μM, [3H]colchicine 50 nM, percent of binding to control without competitor
Description: (§1) Medium is RPMI-1640 with L-glutamine, supplemented with 10% heat-inactivated fetal calf serum, 100 units/mL penicillin, and 100 μg/mL streptomycin (Gibco, Grand Island, N.Y.). Microtubule-associated protein (MAP)-rich tubulin, containing about 70% tubulin and 30% MAPs (#ML113), and highly purified tubulin (>99% pure, #TL238), both from bovine brain, are obtained from Cytoskeleton, Inc., Denver, Colo. PEM buffer (80 mM piperazine-N,N′-bis[2-ethanesulfonic acid], pH 6.9, 1 mM ethylene glycol-bis(β-aminoethyl ether)-N,N,N′,N′-tetraacetic acid, 1 mM magnesium chloride) and guanosine 5′-triphosphate (GTP) are also obtained from Cytoskeleton. […] [^3H]vinblastine, specific activity 9.60 Ci/mmol and MicroSpin G-50 columns are obtained from Amersham Biosciences (Piscataway, N.J.). […] Other reagents are obtained from Sigma (St. Louis, Mo.).
(§2) The binding of examples of this invention to highly purified tubulin is studied by competitive inhibition methods.
(§3) These solutions are incubated at 24° for 1 hr and then applied to MicroSpin G-50 columns which are centrifuged for 2 min at 3000 rpm in an Eppendorf 5415C microfuge. An aliquot of each column effluent (containing tubulin and bound radioligand) is mixed with scintillation fluid and counted in a liquid scintillation spectrometer. […] Quadruplicates are averaged, and the ability of the competitor to inhibit the binding of the radioligand is expressed as a percentage of control binding in the absence of any competitor.

[2] = tested on: highly purified tubulin (tubulin heterodimer); test: Competitive binding test, [3H]vinblastine; design: species or system bovine; details: competitor 100 μM, [3H]vinblastine 100 nM, percent of binding to control without competitor
Description: as §1, §2, §3

[3] = tested on: polymerized tubulin (microtubules); test: Competitive binding test, [3H]paclitaxel; design: species or system bovine; details: competitor 20 μM (5 μM for unlabeled paclitaxel)
Description: as §1, §2
The reactions are then centrifuged at top speed in an Eppendorf 5415C microfuge for 20 min at room temperature in order to pellet the microtubule protein. Triplicate aliquots of each supernatant are mixed with scintillation fluid and counted in a liquid scintillation spectrometer. […] The ability of each competitor to inhibit radioligand binding to pelleted protein is expressed as a percent of controls without any competitor.

[4] = tested on: U87-MG Human Glioblastoma; test: Human tumor xenograft test, U87-MG glioblastoma; format: in vivo, athymic mice; details: for T/C on day 0 / T/C on day 3 / T/C on day 7 / T/C on day 10: schedule day 1, U87-MG
[5] = tested on: DLD1 Human Colon Carcinoma; test: Human tumor xenograft test, DLD1 colon carcinoma; format: in vivo, athymic mice; details: for T/C on day 0 / T/C on day 7 / T/C on day 14: schedule days 1, 7, DLD1
[6] = U87-MG glioblastoma, intravenously on day 1 with 5 mg/kg

CC[C@]1(O)C[C@H]2CN(CCc3c([nH]c4ccccc34)[C@@](C(=O)OC)(c3cc4c(cc3OC)N(C=O)[C@H]3[C@@](O)(C(=O)OC)[C@H](OC(C)=O)[C@]5(CC)C=CCN6CC[C@]43[C@@H]65)C2)C1 [Vincristine, reference compound]
[3H]Colchicine binding, Mean [1]: 99 % of control | [3H]Vinblastine binding, Mean [2]: 5 % of control | [3H]Vinblastine binding, Mean ([2]; listed as vincristine): inhibits [^3H]vinblastine binding

CC(=O)O[C@H]1C(=O)[C@@]2(C)[C@H]([C@H](OC(=O)c3ccccc3)[C@]3(O)C[C@H](OC(=O)[C@H](O)[C@@H](NC(=O)c4ccccc4)c4ccccc4)C(C)=C1C3(C)C)[C@]1(OC(C)=O)CO[C@@H]1C[C@@H]2O [Paclitaxel, reference compound]
[3H]Colchicine binding, Mean [1]: 93 % of control | [3H]Paclitaxel binding, Mean [3]: 35 % of control | [3H]Vinblastine binding, Mean [2]: 92 % of control

CNCCCOc1cc(F)c(-c2c(Cl)nc(-c3cnccn3)nc2N[C@@H](C)C(F)(F)F)c(F)c1.Cl [Example 24a, 6-Chloro-5-{2,6-difluoro-4-[3-(methylamino)propoxy]phenyl}-2-pyrazin-2-yl-N-[(1S)-2,2,2-trifluoro-1-methylethyl]pyrimidin-4-amine hygrogen chloride]
T/C on day 0 ([4]; 1 mg/kg IV): 1.03 | T/C on day 3 ([4]; 1 mg/kg IV): 0.71* | T/C on day 7 ([4]; 1 mg/kg IV): 0.75 | T/C on day 10 ([4]; 1 mg/kg IV): 0.86 | T/C on day 0 ([4]; 5 mg/kg IV): 1.04 | T/C on day 3 ([4]; 5 mg/kg IV): 0.41** | T/C on day 7 ([4]; 5 mg/kg IV): 0.21** | T/C on day 10 ([4]; 5 mg/kg IV): 0.17** | T/C on day 0 ([4]; 10 mg/kg IV): 1.04 | T/C on day 3 ([4]; 10 mg/kg IV): 0.31** | T/C on day 7 ([4]; 10 mg/kg IV): Toxic | compound toxicity [4, 6]: some compound toxicity is also observed | growth of xenografts [4, 6]: inhibits the growth | T/C on day 0 ([5]; 5 mg/kg IV): 1.0 | T/C on day 7 ([5]; 5 mg/kg IV): 0.24** | T/C on day 14 ([5]; 5 mg/kg IV): Toxic | T/C on day 0 ([5]; 5 mg/kg PO): 1.0 | T/C on day 7 ([5]; 5 mg/kg PO): 1.07 | T/C on day 14 ([5]; 5 mg/kg PO): 0.85 | T/C on day 0 ([5]; 10 mg/kg IV): 1.0 | T/C on day 7 ([5]; 10 mg/kg IV): Toxic | T/C on day 0 ([5]; 10 mg/kg PO): 1.0 | T/C on day 7 ([5]; 10 mg/kg PO): 0.82 | T/C on day 14 ([5]; 10 mg/kg PO): 0.28** | growth of tumor ([5]; DLD1 colon carcinoma, orally on days 1 and 7 at 10 mg/kg/dose): inhibits the growth

CNCCCOc1cc(F)c(-c2c(Cl)nc(-c3ccccn3)nc2N[C@@H](C)C(F)(F)F)c(F)c1.Cl [Example 29a, 6-Chloro-5-{2,6-difluoro-4-[3-(methylamino)propoxy]phenyl}-2-pyridin-2-yl-N-[(S)-2,2,2-trifluoro-1-methylethyl]pyrimidin-4-amine hydrogen chloride]
T/C on day 0 ([5]; 1 mg/kg IV): 1.0 | T/C on day 7 ([5]; 1 mg/kg IV): 0.63* | T/C on day 14 ([5]; 1 mg/kg IV): 0.71* | T/C on day 0 ([5]; 1 mg/kg PO): 1.0 | T/C on day 7 ([5]; 1 mg/kg PO): 1.40 | T/C on day 14 ([5]; 1 mg/kg PO): 1.02 | T/C on day 0 ([5]; 5 mg/kg IV): 1.0 | T/C on day 7 ([5]; 5 mg/kg IV): 0.22** | T/C on day 14 ([5]; 5 mg/kg IV): Toxic | T/C on day 0 ([5]; 5 mg/kg PO): 1.0 | T/C on day 7 ([5]; 5 mg/kg PO): 0.79 | T/C on day 14 ([5]; 5 mg/kg PO): 0.59*
